Data set [1] concerns methicilline resistant Staphylococcus aureus (MRSA) (a clinical isolate from the University of Antwerp). In words: Microtitre plate assay, IC90 for bacterial growth. The format is cell-based. As to conditions: 90% inhibitory concentration for bacterial growth; for IC90: Staphylococcus aureus, MRSA, read-out: IC90 STA RMETHIC. As for the experimental part: (§1) The bacteria used in this study were grown overnight in flasks containing 100 ml Mueller-Hinton Broth (Becton Dickinson—cat. no. 275730) in sterile de-ionized water, with shaking, at 37° C. Stocks (0.5 ml/tube) were stored at 70° C. until use. Bacteria titrations were performed in microtiter plates and colony forming units (CFUs) were determined. In general, an inoculum level of approximately 100 CFUs was used for susceptibility testing.
(§2) Anti bacterial Susceptibility Testing: IC90 Determination
(§3) Flat-bottom, sterile 96-well plastic microtiter plates were filled with 180 μl of sterile deionized water, supplemented with 0.25% BSA. Subsequently, stock solutions (7.8× final test concentration) of compounds were added in 45 μl volumes in column 2. Serial five-fold dilutions (45 μl in 180 μl) were made directly in the microtiter plates from column 2 to reach column 11. Untreated control samples with (column 1) and without (column 12) inoculum were included in each microtiter plate. Depending on the bacteria type, approximately 10 to 60 CFU per well of bacteria inoculum (100 TCID50), in a volume of 100 μl in 2.8× Mueller-Hinton broth medium, was added to the rows A to H, except column 12. The same volume of broth medium without inoculum was added to column 12 in row A to H. The cultures were incubated at 37° C. for 24 hours under a normal atmosphere (incubator with open air valve and continuous ventilation). At the end of incubation, one day after inoculation, the bacterial growth was quantitated fluorometrically. Therefore resazurin (0.6 mg/ml) was added in a volume of 20 μl to all wells 3 hours after inoculation, and the plates were re-incubated overnight. A change in colour from blue to pink indicated the growth of bacteria. The fluorescence was read in a computer-controlled fluorometer (Cytofluor Biosearch) at an excitation wavelength of 530 nm and an emission wavelength of 590 nm. The % growth inhibition achieved by the compounds was calculated according to standard methods. The IC90 (expressed in μg/ml) was defined as the 90% inhibitory concentration for bacterial growth.

Data set [2] has as its system Listeria monocytogenes (ATCC49594). In words: Microtitre plate assay, IC90 for bacterial growth. As to conditions: for IC90: Listeria monocytogenes, ATCC49594, 90% inhibitory concentration for bacterial growth, read-out: IC90 LMO 49594; for IC90 LMO 49594: 90% inhibitory concentration for bacterial growth. The format is cell-based. Here is the method: as §1, §2, §3

Data set [3] has as its system Streptococcus pneumoniae (ATCC6305). The experiment in a line: Microtitre plate assay, IC90 for bacterial growth. It is filed as cell-based. As to conditions: for IC90 SPN 6305: 90% inhibitory concentration for bacterial growth; for IC90: Streptococcus pneumoniae, ATCC6305, 90% inhibitory concentration for bacterial growth, read-out: IC90 SPN 6305. As for the experimental part: as §1, §2, §3

Data set [4] deals with Pseudomonas aeruginosa (ATCC27853). In words: Microtitre plate assay, IC90 for bacterial growth. It is filed as cell-based. As to conditions: for IC90 PAE 27853: 90% inhibitory concentration for bacterial growth; for IC90: Pseudomonas aeruginosa, ATCC27853, 90% inhibitory concentration for bacterial growth, read-out: IC90 PAE 27853. As for the experimental part: as §1, §2, §3

Data set [5] relates to Enterococcus faecalis (ATCC29212). The experiment in a line: Microtitre plate assay, IC90 for bacterial growth. The format is cell-based. As to conditions: for IC90 EFA 29212: 90% inhibitory concentration for bacterial growth; for IC90: Enterococcus faecalis, ATCC29212, 90% inhibitory concentration for bacterial growth, read-out: IC90 EFA 29212. Here is the method: as §1, §2, §3

For data set [6], the system named is Staphylococcus aureus (ATCC29213). The experiment in a line: Microtitre plate assay, IC90 for bacterial growth. As to conditions: 90% inhibitory concentration for bacterial growth, 24 hours at 37° C., resazurin; for IC90: Staphylococcus aureus, ATCC29213, 24 h, read-out: IC90 STA 29213. It is filed as cell-based. Here is the method: as §1, §2, §3
A general note: The colour change of resazurin is a common sign of viable cells or microbes.

The test system of data set [7] is Bacillus subtilis (ATCC43639). In words: Microtitre plate assay, IC90 for bacterial growth. It is filed as cell-based. As to conditions: for IC90: Bacillus subtilis, ATCC43639, 90% inhibitory concentration for bacterial growth, read-out: IC90 BSU 43639; for IC90 BSU 43639: 90% inhibitory concentration for bacterial growth. Here is the method: as §1, §2, §3
Data set [8] has as its system Staphylococcus aureus (ATCC25923). The experiment in a line: Microtitre plate assay, IC90 for bacterial growth. The format is cell-based. As to conditions: for IC90: Staphylococcus aureus, ATCC25923, 90% inhibitory concentration for bacterial growth, read-out: IC90 STA 25923; for IC90 STA 25923: 90% inhibitory concentration for bacterial growth. Here is the method: as §1, §2, §3

Data set [9] concerns Streptococcus pyogens (ATCC8668). In words: Microtitre plate assay, IC90 for bacterial growth. It is filed as cell-based. As to conditions: for IC90 SPY 8668: 90% inhibitory concentration for bacterial growth; for IC90: Streptococcus, ATCC8668, 90% inhibitory concentration for bacterial growth, read-out: IC90 SPY 8668. As for the experimental part:
as §1, §2, §3

The subject of data set [10] is Streptococcus mutans (ATCC33402). In words: Microtitre plate assay, IC90 for bacterial growth. It is filed as cell-based. As to conditions: for IC90: Streptococcus mutans, ATCC33402, 90% inhibitory concentration for bacterial growth, read-out: IC90 SMU 33402. As for the experimental part: as §1, §2, §3
The subject of data set [11] is Enterococcus faecalis (ATCC14506). The experiment in a line: Microtitre plate assay, IC90 for bacterial growth. It is filed as cell-based. As to conditions: 90% inhibitory concentration for bacterial growth, read-out: IC90 EFA 14506. Here is the method:
as §1, §2, §3

In brackets after ≈: the same amount, converted by molar mass.

Usually IC90 stands for the point of the concentration-response curve where the effect stands at 90%. Broadly, the melting point is the temperature of the solid-liquid transition. `COc1nc2ccc(Br)cc2cc1C(c1ccccc1)C1(c2cccc3ccccc23)CCN(C)CO1` (single isomer, unassigned) [Compound 1] gave a melting point of 112 °C. Further, the IC90 in data set [1] came out at 55.4 µg/mL (≈ 100 µM). Further, in data set [2], the IC90 was found to be 44 µg/mL (≈ 79.5 µM). Further, the “IC90 SPN 6305” value in data set [3] was determined as 5.5 µg/mL (≈ 9.94 µM). In addition, in [4], the “IC90 PAE 27853” value was 44.0 µg/mL (≈ 79.5 µM). For the same compound, the “IC90 EFA 29212” value in [5] was found to be 55.4 µg/mL (≈ 100 µM). For the same compound, the “IC90 STA 29213” value in data set [6] turned out to be 55.4 µg/mL (≈ 100 µM). Besides, in data set [7], the IC90 was 44 µg/mL (≈ 79.5 µM). Further, the IC90 in [8] came to 55.4 µg/mL (≈ 100 µM). Besides, in [9], the “IC90 SPY 8668” value was found to be 44.0 µg/mL (≈ 79.5 µM). In addition, the IC90 in data set [10] was determined as 44 µg/mL (≈ 79.5 µM).

Regarding `COc1ccc2nc(OC)c(C(c3ccccc3)C3(c4cccc5ccccc45)CCN(C)CO3)cc2c1` (single isomer, unassigned) [Compound 4], the IC90 in data set [1] came to 50.5 µg/mL (≈ 100 µM); in data set [3], 1 µg/mL (≈ 1.98 µM); in data set [9], 20.1 µg/mL (≈ 39.8 µM); in data set [10], 20.1 µg/mL (≈ 39.8 µM). The “IC90 LMO 49594” value in [2] turned out to be 25.3 µg/mL (≈ 50.1 µM). Also, in data set [4], the “IC90 PAE 27853” value worked out at 50.5 µg/mL (≈ 100 µM). Also, the “IC90 EFA 29212” value in data set [5] is 50.5 µg/mL (≈ 100 µM). Further, the “IC90 STA 29213” value in data set [6] amounted to 50.5 µg/mL (≈ 100 µM). The “IC90 BSU 43639” value in data set [7] was 50.5 µg/mL (≈ 100 µM). Besides, the “IC90 STA 25923” value in data set [8] was found to be 50.5 µg/mL (≈ 100 µM).

Take `COc1nc2ccc(C)cc2cc1C(c1ccccc1)C1(c2cccc3ccccc23)CCN(C)CO1` (single isomer, unassigned) [Compound 5]: the IC90 in data set [1], in data set [2], in data set [4], in data set [5], in data set [6] and in [7] was 48.9 µg/mL (≈ 100 µM) in each case. The IC90 in data set [8] was found to be 48.9 µg/mL (≈ 100 µM); in data set [10], 24.5 µg/mL (≈ 50.1 µM). For the same compound, the “IC90 SPN 6305” value in [3] was 10.9 µg/mL (≈ 22.3 µM). Also, in data set [9], the “IC90 SPY 8668” value was found to be 8.7 µg/mL (≈ 17.8 µM).

In turn, `COc1nc2ccc(Br)cc2cc1C(c1ccccc1)C1(C2=CC=CCC2)CCN(C)CO1` (single isomer, unassigned) [Compound 8] showed a melting point of 168 °C. Further, the IC90 in [1] is 12.7 µg/mL (≈ 25.1 µM). Moreover, the concentration for an effect of 90% (IC90) in [2] was 12.7 µg/mL (≈ 25.1 µM). In addition, the IC90 in data set [3] came to 12.7 µg/mL (≈ 25.1 µM). Further, the IC90 in [4] is 10 µg/mL (≈ 19.8 µM). In addition, the IC90 in data set [5] was determined as 12.7 µg/mL (≈ 25.1 µM). For the same compound, the IC90 in [6] was found to be 12.7 µg/mL (≈ 25.1 µM). In addition, in data set [7], the 90% effect concentration (IC90) was 12.7 µg/mL (≈ 25.1 µM). The IC90 in data set [11] was found to be 40 µg/mL (≈ 79.1 µM). In data set [8], the IC90 amounted to 12.7 µg/mL (≈ 25.1 µM). Further, in data set [9], the IC90 is 12.7 µg/mL (≈ 25.1 µM).

Turning to `COc1ccc2nc(OC)c(C(c3ccccc3)C3(c4cccc5ccccc45)CCN(C)CO3)cc2c1` (single isomer, unassigned) [Compound 10], the “IC90 STA RMETHIC” value in data set [1] was 50.5 µg/mL (≈ 100 µM). The “IC90 LMO 49594” value in data set [2] was 10.1 µg/mL (≈ 20 µM). In addition, in [3], the “IC90 SPN 6305” value was 1.1 µg/mL (≈ 2.18 µM). Moreover, the “IC90 PAE 27853” value in data set [4] came out at 12.7 µg/mL (≈ 25.2 µM). Further, in data set [5], the “IC90 EFA 29212” value turned out to be 12.7 µg/mL (≈ 25.2 µM). In addition, the “IC90 STA 29213” value in [6] was determined as 12.7 µg/mL (≈ 25.2 µM). In data set [7], the “IC90 BSU 43639” value was 2.5 µg/mL (≈ 4.95 µM). The “IC90 STA 25923” value in data set [8] is 12.7 µg/mL (≈ 25.2 µM). Besides, the “IC90 SPY 8668” value in data set [9] was determined as 10.1 µg/mL (≈ 20 µM). In addition, the “IC90 SMU 33402” value in data set [10] (90% inhibitory concentration for bacterial growth) is 12.7 µg/mL (≈ 25.2 µM).

The record behind these values is patent publication US8691800B2, “Quinoline derivatives as antibacterial agents” (Janssen Pharmaceutica N.V., priority 2005, dated 2014).
